Key:
[1] = Reduction potential of organic acceptor compound by cyclic voltammetry; format: physicochemical; settings: for Reduction potential [V] of organic acceptor: organic acceptor added when producing the phthalocyanine crystal, reference electrode (Ag+/Ag); for Reduction potential [V] / Redox potential: organic acceptor; for Reduction Potential: to reference electrode (Ag+/Ag), cyclic voltammetry in dichloromethane
Experimental: The reduction potential of the organic acceptor compound was determined by a cyclic voltammetry. The measurement conditions are shown below.
Work electrode: glassy carbon
Counter electrode: platinum
Reference electrode: silver/silver nitrate (0.1 mol/1AgNO3-acetonitrile solution)
Electrolyte: tetra-n-butylammonium perchlorate (0.1 mol)
Specimen: acceptor compound (0.001 mol)
Solvent: dichloromethane (1 L)

[2] = Solubility of organic acceptor compound in tetrahydrofuran (solvent of coating solution); format: physicochemical; settings: for Solubility / Solubility/THF [% by weight]: THF; for Solubility/THF [% by weight]: organic acceptor; for Solubility/THF [% by weight] of organic acceptor: in THF
Text: Specific examples of the organic acceptor compound are shown below.

Structure (SMILES): O=C1C(Oc2ccccc2)=C(Oc2ccccc2)C(=O)c2ccccc21 [AC-1]
- Reduction potential [V] of organic acceptor ([1]; Table 3): −0.95 V
- Reduction potential [V] of organic acceptor ([1]; Table 5): −0.95 V
- Reduction potential [V] ([1]; Table 1): −0.95 V
- Reduction potential [V] ([1]; Table 2): −0.95 V
- Redox potential ([1]; Table 4): −0.95
- Redox potential ([1]; Table 6): −0.95
- Reduction Potential [1]: −0.95 V
- Solubility [2]: 3 % by weight
- Solubility/THF [% by weight] ([2]; Table 1): 3 % by weight
- Solubility/THF [% by weight] ([2]; Table 2): 3 % by weight
- Solubility/THF [% by weight] ([2]; Table 4): 3 % by weight
- Solubility/THF [% by weight] ([2]; Table 6): 3 % by weight
- Solubility/THF [% by weight] of organic acceptor ([2]; Table 3): 3 % by weight
- Solubility/THF [% by weight] of organic acceptor ([2]; Table 5): 3 % by weight

Structure (SMILES): CC(C)(C)C1=CC(=C2C=C(C(C)(C)C)C(=O)C(C(C)(C)C)=C2)C=C(C(C)(C)C)C1=O [AC-2]
- Reduction potential [V] of organic acceptor ([1]; Table 3): −0.85 V
- Reduction potential [V] of organic acceptor ([1]; Table 5): −0.85 V
- Reduction potential [V] ([1]; Table 1): −0.85 V
- Reduction potential [V] ([1]; Table 2): −0.85 V
- Reduction Potential [1]: −0.85 V
- Solubility [2]: 3 % by weight
- Solubility/THF [% by weight] ([2]; Table 1): 3 % by weight
- Solubility/THF [% by weight] ([2]; Table 2): 3 % by weight
- Solubility/THF [% by weight] of organic acceptor ([2]; Table 3): 3 % by weight
- Solubility/THF [% by weight] of organic acceptor ([2]; Table 5): 3 % by weight

Structure (SMILES): O=C1c2ccc3c4c(ccc(c24)C(=O)N1C1CCCCC1)C(=O)N(C1CCCCC1)C3=O [AC-3]
- Reduction potential [V] of organic acceptor ([1]; Table 3): −0.85 V
- Reduction potential [V] of organic acceptor ([1]; Table 5): −0.85 V
- Reduction potential [V] ([1]; Table 1): −0.85 V
- Reduction potential [V] ([1]; Table 2): −0.85 V
- Reduction Potential [1]: −0.85 V
- Solubility [2]: 1 % by weight
- Solubility/THF [% by weight] ([2]; Table 1): 1 % by weight
- Solubility/THF [% by weight] ([2]; Table 2): 1 % by weight
- Solubility/THF [% by weight] of organic acceptor ([2]; Table 3): 1 % by weight
- Solubility/THF [% by weight] of organic acceptor ([2]; Table 5): 1 % by weight

Structure (SMILES): O=C1NC(=O)c2ccccc21 [AC-4]
- Reduction potential [V] of organic acceptor ([1]; Table 3): −1.28 V
- Reduction potential [V] of organic acceptor ([1]; Table 5): −1.28 V
- Reduction potential [V] ([1]; Table 1): −1.28 V
- Reduction potential [V] ([1]; Table 2): −1.28 V
- Reduction Potential [1]: −1.28 V
- Solubility [2]: 3 % by weight
- Solubility/THF [% by weight] ([2]; Table 1): 3 % by weight
- Solubility/THF [% by weight] ([2]; Table 2): 3 % by weight
- Solubility/THF [% by weight] of organic acceptor ([2]; Table 3): 3 % by weight
- Solubility/THF [% by weight] of organic acceptor ([2]; Table 5): 3 % by weight

Structure (SMILES): O=C1OC(=O)c2ccccc21 [AC-5, reference compound]
- Redox potential ([1]; Table 4): −1.53
- Redox potential ([1]; Table 6): −1.53
- Reduction Potential [1]: −1.53 V
- Solubility [2]: 5 % by weight
- Solubility/THF [% by weight] ([2]; Table 4): 5 % by weight
- Solubility/THF [% by weight] ([2]; Table 6): 5 % by weight

Structure (SMILES): O=C(c1ccccc1)c1ccccc1 [AC-6, reference compound]
- Redox potential ([1]; Table 4): −1.32
- Redox potential ([1]; Table 6): −1.32
- Reduction Potential [1]: −1.32 V

Structure (SMILES): Cc1ccc(C(=O)c2ccc(C)cc2)cc1 [AC-8, reference compound]
- Redox potential ([1]; Table 4): −1.31
- Redox potential ([1]; Table 6): −1.31
- Reduction Potential [1]: −1.31 V
- Solubility [2]: 11 % by weight
- Solubility/THF [% by weight] ([2]; Table 4): 11 % by weight
- Solubility/THF [% by weight] ([2]; Table 6): 11 % by weight
